Experimental data from PMC4565196 (Biochimica et biophysica acta, 2014).

How the values were obtained:
[1] = tested on: A2AR single and double Cys-to-Ala variants; assay: Fluorescent-ligand binding to the A2AR variants; set-up: species or system human; conditions: HEK-293 cells, untagged A2AR constructs, 70 nM FITC-APEC, 1 h at 37 °C
A2a–adenosine receptors = conditions: high affinity fluorescent agonist; cited from earlier work

## CCNC(=O)[C@H]1O[C@@H](n2cnc3c(N)nc(NCCc4ccc(CCC(=O)NCCNC(=S)Nc5ccc6c(c5)C(=O)OC6(c5ccc(O)cc5)c5ccc(O)cc5)cc4)nc32)[C@H](O)[C@@H]1O [FITC-APEC, 2-[2-[4-[2-[2-[1,3-Dihydro-1,1-bis (4-hydroxyphenyl)-3-oxo-5-isobenzofuranthioureidyl]ethylaminocarbonyl]ethyl]phenyl]ethylamino]-5N′-ethylcarboxamidoadenosine]
[1]
  fluorescent ligand binding at the cell surface: capable of binding
A2a–adenosine receptors
  Kd: 57 nM
